Test results reported in article PMC6274262, “Synthesis of Novel Symmetrical 1,4-Disubstituted 1,2,3-Bistriazole Derivatives via ‘Click Chemistry’ and Their Biological Evaluation” (Molecules, 2016).
pIC50: −log10 of the molar value.

What was measured:
S. cerevisiae RSKK 251 = assay: Agar-well diffusion antimicrobial screening; assay type: cell-based, Saccharomyces cerevisiae
[1] = DPPH radical scavenging assay; settings: 0.1 mM methanolic DPPH, 30 min in the dark, 517 nm; mean ± S.D., triplicate
Protocol: Some 1,2,3-triazole compounds are known to act either as inhibitors of free radical production or as radical scavengers. Therefore, the potential antioxidant property of the new 1,2,3-trizole compounds was evaluated by determining their DPPH and SOD radical scavenging ability. DPPH is a stable free radical that accepts an electron or hydrogen radical to become a stable species. Due to its odd electron, DPPH gives a strong absorption band at 517 nm. Antioxidants are suitable reducing agents and neutralize the free radicals by pairing the DPPH odd electron with a hydrogen atom, and the DPPH solution turns yellow, observed as the decrease in absorbance at 517 nm.
The compounds were tested for in vitro antioxidant activities by the 2,2-diphenyl-1-picrylhydrazyl (DPPH) free radical scavenging assay method. The total volume of the assay mixtures containing methanolic DPPH solution (0.1 mM) and different concentrations of samples was 1 mL. After incubation in the dark at room temperature for 30 min., absorbance of the samples (Asample) was measured at 517 nm. Assay mixture without compound was used as control (control absorbance, Acontrol). All experiments were carried out in triplicate and results were expressed as the mean ±standard deviation (S.D.). Butylatedhydroxyanisole (BHA) were used as the reference compound. Free radical scavenging effect was calculated using Equation (1).

[2] = Superoxide radical scavenging assay (NBT photo reduction method); settings: pH 7.8, 30 °C, 10 min, 560 nm, mean ± S.D., triplicate
Protocol: Superoxide scavenging activity of the compounds and reference were tested in a non-enzymatic superoxide radical (O2^−•) generation assay using a modified spectrophotometrical nitro blue tetrazolium (NBT) photo reduction method. The total volume of the assay mixtures containing riboflavin (2 μM), methionine (13 mM), NBT ([…]), EDTA (0.1 mM), and the test samples (50 mM phosphate buffer, pH = 7.8) was 1 mL. After illuminating with a fluorescent lamp at 30 °C for 10 min., the absorbance of the samples (Asample) was measured at 560 nm. Assay mixture without the compound was used as control (control absorbance, Acontrol). All experiments were carried out in triplicate and results were expressed as the mean ± standard deviation (S.D.). Free O2^−• radical scavenging effect was calculated using Equation (1).

[3] = biological target: T1, Electric eel acetyl-cholinesterase enzyme (AchE, Type-VI-S; EC 3.1.1.7) (Electrophorus electricus, UniProt O42275); assay: biochemical; settings: mean ± S.D. of three independent experiments; Tris-HCl pH 8.00, 412 nm
T1 construct: purchased Sigma-Aldrich Type-VI-S
Protocol: Firstly, all of the compounds stock solution in DMF (1 × 10^−3 M) were prepared and then five different concentrations were prepared from stock solution in buffer (Tris-HCI pH 8.00) for experiments. Briefly 50 µL of 50 mM Tris-HCl buffer (pH 8.00), 125 µL of 3 mM DTNB (in buffer), 25 µL of 0.2 U/mL AChE and 25 µL of sample dissolved in buffer and incubated for 15 min. at 25 °C. Fifteen minutes later, 25 µL of 15 mM acetyl thiocholine iodide were added and incubated 5 min. at room temperature. The reaction was initiated by the addition of acetylcholine iodide. The hydrolysis of this substrate was monitored by the formation of the yellow 5-thio-2-nitrobenzoate anion as a result of the reaction DTNB with thiocholine, catalized by enzyme at a wave length of 412 nm using a 96-well microplate reader (Multiskan Go UV-spectrophotometer, Thermo Fisher Scientific Oy Ratastie 2, Vantaa, Finland).
Inhibition of AChE was calculated by the comparison of reaction rates of the samples relative to the blank sample (DMF in phosphate buffer pH = 8) using the Equation (1) where Acontrol is the activity of enzyme without test sample and Asample is the activity of enzyme with test sample: (1) Scavenging effects (%)=[(Acontrol−Asample)/Acontrol]×100
The experiments were carried out in triplicate and IC50 values were examined.

C. albicans ATCC 60193 = assay: Agar-well diffusion antimicrobial screening; assay type: cell-based, Candida albicans

T1 sequence (O42275 24-633): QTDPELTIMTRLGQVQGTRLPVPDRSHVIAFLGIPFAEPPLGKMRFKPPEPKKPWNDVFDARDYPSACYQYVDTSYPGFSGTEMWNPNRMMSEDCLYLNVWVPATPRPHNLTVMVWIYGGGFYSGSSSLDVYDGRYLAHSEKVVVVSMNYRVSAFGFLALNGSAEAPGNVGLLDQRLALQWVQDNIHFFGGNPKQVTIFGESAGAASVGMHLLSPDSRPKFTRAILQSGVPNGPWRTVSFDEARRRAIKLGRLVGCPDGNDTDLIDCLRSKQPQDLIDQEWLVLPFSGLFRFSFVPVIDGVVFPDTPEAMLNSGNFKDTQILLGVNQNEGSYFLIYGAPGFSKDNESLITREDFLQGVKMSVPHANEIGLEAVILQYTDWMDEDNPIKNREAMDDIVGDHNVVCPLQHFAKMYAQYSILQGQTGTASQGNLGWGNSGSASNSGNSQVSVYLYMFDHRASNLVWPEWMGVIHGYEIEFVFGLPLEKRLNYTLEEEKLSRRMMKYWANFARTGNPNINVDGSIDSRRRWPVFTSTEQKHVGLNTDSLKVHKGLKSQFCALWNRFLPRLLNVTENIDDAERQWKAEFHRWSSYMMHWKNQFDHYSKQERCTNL

Row | Compound | Inhibition Zone Sc (S. cerevisiae RSKK 251) | DPPH IC50 [1] | SOD IC50 [2] | pIC50 [3] | Inhibition Zone Ca (C. albicans ATCC 60193) [mm]
1 | 4-((1-(10-(4-((4-Formyl-2-methoxyphenoxy)methyl)-1H-1,2,3-triazol-1-yl)decyl)-1H-1,2,3-triazol-4-yl)-methoxy)-2-methoxybenzaldehyde [Compound 5f] | - |  |  |  | 
2 | COc1ccc(O)c(C(C)(C)C)c1 [BHA, Butylatedhydroxyanisole, reference compound] |  | 98.56 (±0.08) µg/mL |  |  | 
3 | CC(=O)c1ccc(OCc2cn(CCCn3cc(COc4ccc(C(C)=O)cc4)nn3)nn2)cc1 [Compound 2a, 1,1′-((((Propane-1,3-diylbis(1H-1,2,3-triazole-1,4-diyl))bis(methylene))bis(oxy))bis(4,1-phenylene))bis(ethan-1-one)] |  | 155.49 (±0.08) µg/mL | 45.12 (±0.04) µg/mL | 4.19 | 
4 | CC(=O)c1ccc(OCc2cn(CCCCn3cc(COc4ccc(C(C)=O)cc4)nn3)nn2)cc1 [Compound 2b, 1,1′-((((Butane-1,4-diylbis(1H-1,2,3-triazole-1,4-diyl))bis(methylene))bis(oxy))bis(4,1-phenylene))bis(ethan-1-one)] |  | 158.72 (±0.05) µg/mL | 107.54 (±0.07) µg/mL | 4.28 | 
5 | CC(=O)c1ccc(OCc2cn(CCCCCn3cc(COc4ccc(C(C)=O)cc4)nn3)nn2)cc1 [Compound 2c, 1,1′-((((Pentane-1,5-diylbis(1H-1,2,3-triazole-1,4-diyl))bis(methylene))bis(oxy))bis(4,1-phenylene))bis(ethan-1-one)] |  | 175.65 (±0.06) µg/mL | 147.36 (±0.05) µg/mL | 4.17 | 6
6 | CC(=O)c1ccc(OCc2cn(CCCCCCn3cc(COc4ccc(C(C)=O)cc4)nn3)nn2)cc1 [Compound 2d, 1,1′-((((Hexane-1,6-diylbis(1H-1,2,3-triazole-1,4-diyl))bis(methylene))bis(oxy))bis(4,1-phenylene))bis(ethan-1-one)] |  | 152.84 (±0.05) µg/mL | 154.79 (±0.06) µg/mL | 4.20 | 6
7 | CC(=O)c1ccc(OCc2cn(CCCCCCCCn3cc(COc4ccc(C(C)=O)cc4)nn3)nn2)cc1 [Compound 2e, 1,1′-((((Octane-1,8-diylbis(1H-1,2,3-triazole-1,4-diyl))bis(methylene))bis(oxy))bis(4,1-phenylene))bis(ethan-1-one)] |  | 222.16 (±0.07) µg/mL | 131.43 (±0.06) µg/mL | 4.18 | 
8 | CC(=O)c1ccc(OCc2cn(CCCCCCCCCCn3cc(COc4ccc(C(C)=O)cc4)nn3)nn2)cc1 [Compound 2f, 1,1′-((((Decane-1,10-diylbis(1H-1,2,3-triazole-1,4-diyl))bis(methylene))bis(oxy))bis(4,1-phenylene))bis-(ethan-1-one)] |  | 167.51 (±0.05) µg/mL | 88.15 (±0.06) µg/mL | 4.29 | 
9 | COc1cc(C(C)=O)ccc1OCc1cn(CCCn2cc(COc3ccc(C(C)=O)cc3OC)nn2)nn1 [Compound 3a] |  | 141.57 (±0.08) µg/mL | 120.53 (±0.04) µg/mL | 4.20 | 6
10 | COc1cc(C(C)=O)ccc1OCc1cn(CCCCn2cc(COc3ccc(C(C)=O)cc3OC)nn2)nn1 [Compound 3b, 1-(4-((1-(4-(4-((4-Acetyl-2-methoxyphenoxy)methyl)-1H-1,2,3-triazol-1-yl)butyl)-1H-1,2,3-triazol-4-yl)-methoxy)-2-methoxyphenyl)ethan-1-one] |  | 113.63 (±0.05) µg/mL | 51.37 (±0.07) µg/mL | 4.24 | 
11 | COc1cc(C(C)=O)ccc1OCc1cn(CCCCCn2cc(COc3ccc(C(C)=O)cc3OC)nn2)nn1 [Compound 3c] |  | 188.45 (±0.11) µg/mL | 284.10 (±0.07) µg/mL | 4.12 | 
12 | COc1cc(C(C)=O)ccc1OCc1cn(CCCCCCCCCCn2cc(COc3ccc(C(C)=O)cc3OC)nn2)nn1 [Compound 3f] |  | 207.57 (±0.09) µg/mL | 98.35 (±0.06) µg/mL | 4.10 | 
13 | O=Cc1ccc(OCc2cn(CCCn3cc(COc4ccc(C=O)cc4)nn3)nn2)cc1 [Compound 4a, 4,4′-(((Propane-1,3-diylbis(1H-1,2,3-triazole-1,4-diyl))bis(methylene))bis(oxy))dibenzaldehyde] |  | 192.02 (±0.12) µg/mL | 55.67 (±0.08) µg/mL | 4.20 | 
14 | O=Cc1ccc(OCc2cn(CCCCn3cc(COc4ccc(C=O)cc4)nn3)nn2)cc1 [Compound 4b, 4,4′-(((Butane-1,4-diylbis(1H-1,2,3-triazole-1,4-diyl))bis(methylene))bis(oxy))dibenzaldehyde] |  | 125.05 (±0.08) µg/mL | 121.74 (±0.08) µg/mL | 4.13 | 6
15 | O=Cc1ccc(OCc2cn(CCCCCn3cc(COc4ccc(C=O)cc4)nn3)nn2)cc1 [Compound 4c, 4,4′-(((Pentane-1,5-diylbis(1H-1,2,3-triazole-1,4-diyl))bis(methylene))bis(oxy))dibenzaldehyde] |  | 227.38 (±0.07) µg/mL | 60.32 (±0.07) µg/mL | 4.08 | 6
16 | O=Cc1ccc(OCc2cn(CCCCCCn3cc(COc4ccc(C=O)cc4)nn3)nn2)cc1 [Compound 4d, 4,4′-(((Hexane-1,6-diylbis(1H-1,2,3-triazole-1,4-diyl))bis(methylene))bis(oxy))dibenzaldehyde] |  | 204.31 (±0.11) µg/mL | 82.77 (±0.11) µg/mL | 4.23 | 
17 | O=Cc1ccc(OCc2cn(CCCCCCCCn3cc(COc4ccc(C=O)cc4)nn3)nn2)cc1 [Compound 4e, 4,4′-(((Octane-1,8-diylbis(1H-1,2,3-triazole-1,4-diyl))bis(methylene))bis(oxy))dibenzaldehyde] |  | 192.04 (±0.09) µg/mL | 88.86 (±0.09) µg/mL | 4.20 | 6
18 | O=Cc1ccc(OCc2cn(CCCCCCCCCCn3cc(COc4ccc(C=O)cc4)nn3)nn2)cc1 [Compound 4f, 4,4′-(((Decane-1,10-diylbis(1H-1,2,3-triazole-1,4-diyl))bis(methylene))bis(oxy))dibenzaldehyde] |  | 210.33 (±0.08) µg/mL | 93.47 (±0.09) µg/mL | 4.20 | 
19 | COc1cc(C=O)ccc1OCc1cn(CCCn2cc(COc3ccc(C=O)cc3OC)nn2)nn1 [Compound 5a] |  | 150.03 (±0.08) µg/mL | 126.2 (±0.07) µg/mL | 4.13 | 
20 | COc1cc(C=O)ccc1OCc1cn(CCCCn2cc(COc3ccc(C=O)cc3OC)nn2)nn1 [Compound 5b] |  | 154.51 (±0.07) µg/mL | 109.17 (±0.10) µg/mL | 4.21 | 
21 | COc1cc(C=O)ccc1OCc1cn(CCCCCn2cc(COc3ccc(C=O)cc3OC)nn2)nn1 [Compound 5c] |  | 192.46 (±0.11) µg/mL | 145.68 (±0.11) µg/mL | 4.16 | 
22 | COc1cc(C=O)ccc1OCc1cn(CCCCCCn2cc(COc3ccc(C=O)cc3OC)nn2)nn1 [Compound 5d] |  | 191.39 (±0.08) µg/mL | 157.14 (±0.07) µg/mL | 4.15 | 
23 | COc1cc(C=O)ccc1OCc1cn(CCCCCCCCn2cc(COc3ccc(C=O)cc3OC)nn2)nn1 [Compound 5e] |  | 221.57 (±0.06) µg/mL | 188.84 (±0.08) µg/mL | 4.21 | 
